# Measurements: patent publication US9808434B2, “Compound for treating cancer and diabetes” (CITY OF HOPE, priority 2011, dated 2017)
# Tests used:
# [1] = test system: H520; assay: Colony formation assay, H520; type: cell-based, human; conditions: 1.5 μM
# Method: (§1) Cell survival was evaluated using a standard colony-forming assay. In total, 1×10^5 cells/mL were incubated with COH-SR4 (1.5 μM or 5 μM) or elesclomol (5 μM) for 24 h, and aliquots of 50 or 100 μL were added to 60 mm size petri dishes, containing 4 mL culture medium. After 7 or 10 days, adherent colonies were fixed, stained with 0.5% methylene blue for 30 min and colonies were counted using the Innotech Alpha Imager HP (91).
# The effect of COH-SR4 was first examined in a NCI panel of cancer cell lines, the results of which indicated good activity of COH-SR4 towards lung cancer (FIG. 78A). […] Values are presented as mean±SD from two separate determinations with eight replicates each (n=16) (FIG. 78B). The COH-SR4 treatment exerted a significant inhibitory effect on the survival of lung cancer cells [IC50: H1417 cells-1.2±0.2 μM, H1618 cells-1.5±0.2 μM, H358 cells-2.1±0.2 μM and H520 cells-2.4±0.3 μM]. […] Following initial screening for the anticancer activity of COH-SR4, the effect of COH-SR4 on clonogenic potential was studied. Standard colony-forming assay was performed and the colonies were counted using Innotech Alpha Imager HP. […] The effect of COH-SR4 on induction of apoptosis was further investigated. […] TUNEL assay was performed using Promega fluorescence detection kit and examined using Zeiss LSM 510 META laser-scanning fluorescence microscope with filters 520 and 620 nm. […]
# [2] = test system: Stat3, HIF-1α; assay: Stat3 phosphorylation and HIF-1α expression in SKOV3, immunoblotting; type: cell-based, human; conditions: SKOV3, 24 hours, 1-10 μM
# Method: SKOV3 cells were incubated with various concentrations of COH-SR4 (1˜10 μM) for 24 hours. Whole-cell lysates were analyzed by immunoblotting with antibodies against phosphorylated and total form of Stat3, Akt and MAPK, and HIF-1α. GAPDH was used as a loading control.
# [3] = test system: PBT-017 glioma cells; assay: Apoptosis of PBT-017 glioma cells, cell counts; type: cell-based; conditions: 2 or 10 μM, 4 days
# Method: PBT-017 glioma cells were incubated with nothing (control), DMSO, and COH-SR4 at 2 μM or 10 μM for 4 days.
# [4] = test system: isolated mouse liver mitochondria; assay: Mitochondrial swelling assay; conditions: potassium acetate buffer with valinomycin
# Method: Mitochondrial swelling was measured in non-respiring mouse liver mitochondria incubated in buffered isotonic potassium acetate in the presence of valinomycin (24,25). […] Absorbance of the mitochondrial suspension before and after addition test compounds was measured every 10 seconds using a Varian Cary 300 spectrophotometer (Agilent Technologies, Santa Clara, Calif.). Swelling was recorded from the decrease in absorbance at 600 nm and expressed as percentage from initial reading after addition of mitochondria.
# Mitochondrial membrane swelling was detected as decrease in absorbance at 600 nm following the addition of COH-SR4 or FCCP alone or in the presence of cysclosporin A (CSA, 1 μM) on isolated mouse liver mitochondria respiring on succinate (10 mM) in the presence of rotenone (1 μM) and valinomycin (5 μM) in potassium acetate buffer. […] Arrow indicates time of addition of test compounds into the mitochondria suspension.
# [5] = test system: A2058 cells; assay: Annexin V / propidium iodide flow cytometry, A2058; type: cell-based, human
# Method: Apoptosis of cells were measured based on loss of membrane integrity using Annexin V-FITC Apoptosis Detection Kit as described by the supplier (BD Biosciences Pharmingen, San Diego, Calif.), in which the early- and late-death cells were stained with Annexin V-FITC and propidium iodide. Cells were analyzed using a CyAn ADP cytometer (Beckman Coulter Inc) to quantify fluorescence. Apoptotic cells were defined as Annexin V-FITC positive.
# [6] = test system: PBT018; assay: Glioma ATP viability assay, PBT018; type: cell-based; conditions: Table 1; 72 hours
# Method: Cells of each cell line (U251, U87, PBT-017, PBT018, PBT003 and PBT028) were treated with various concentrations (0˜100 μM) of COH-SR4 for 72 hours. Cell viabilities were determined by ATP viability assays. Data were represented as a ratio to vehicle (DMSO) control, and plotted as mean±SEM (n=12) obtained from 2˜3 experiments (FIG. 34A).
# [7] = test system: GST; assay: Total GST activity towards CDNB in H358 tumor tissue lysates; type: in vivo; conditions: n=3; control 0.32±0.03
# Text: The effect of COH-SR4 on signaling pathways of relevance to lung cancer progression was further analyzed by Western-blots of lysates from resected tumors (as described in Example 31). GAPDH was used as internal control. The bar diagrams (FIG. 82B) represent the fold change in the levels of proteins as compared to the controls as determined by densitometry. Dotted line represents no significant change observed when compared to the controls. The COH-SR4 treated groups had high levels of cleaved-PARP compared to the untreated controls, which reinforces the finding of apoptotic effect as observed in-vitro by TUNEL assay. Akt is a signaling protein that transduces the proliferative signals from upstream integrins and growth factor receptors. The COH-SR4 treatments increased the levels of PARP cleavage along with decreased levels of pAkt (S^473). […] In accordance with decreased levels of pAkt (S^473), the levels of pP70S6K were decreased in COH-SR4 treated groups compared to controls. […] COH-SR4 treated tumor tissue lysates were analyzed to test the impact of long term COH-SR4 treatment in vivo on GST expression and activity. […] The total GST activity as measured by activity towards CDNB as a substrate, in COH-SR4 treated tumor tissue lysates was lower compared to the controls [control, 0.32±0.03 U/mg protein; COH-SR4 treated, 0.21±0.05 U/mg protein; (n=3)]. […]
# [8] = test system: SK-Mel-31; assay: Colony formation assay, SK-Mel-31; type: cell-based, human; conditions: 5 μM
# Method: as §1
# [9] = test system: human VEGF promoter; assay: VEGF promoter luciferase reporter in U251; type: cell-based; conditions: U251, 1 or 3 μM, 24 hours
# Method: U251 cells expressing luciferase reporter containing human VEGF promoter were incubated with various concentrations of COH-SR4 (0, 1, or 3 μM) for 24 hours. Luciferase activity was determined and normalized to the cell number for each treatment. Data were represented as a ratio to vehicle control that was treated by DMSO.
smiles,measurement,setting,value
"O=C(Nc1cc(Cl)cc(Cl)c1)Nc1cc(Cl)cc(Cl)c1 [COH-SR4, 1,3-bis(3,5-dichlorophenyl) urea]",colony formation,[1],54±5%
same,phosphorylation of Stat3 and HIF-1α protein expression,[2],inhibited phosphorylation of Stat3 protein and HIF-1α protein expression
same,fraction of apoptotic cells,[3],increased the fraction of apoptotic cells
same,mitochondrial swelling (absorbance at 600 nm),[4],mitochondrial swelling was observed
same,apoptosis (annexin V / propidium iodide),[5],caused apoptosis in A2058 cells in a dose-dependent manner
same,IC50,[6],6.5 µM
same,total GST activity towards CDNB,[7],0.21±0.05 U/mg protein
same,colony formation,[8],40±4%
same,luciferase expression (VEGF promoter),[9],inhibited luciferase expression of VEGF protein
